Experimental data as given in patent US10829796B2, “Bacteria identification and antimicrobial susceptibility test” (priority 2015, dated 2020).

Legend:
Assay type in all cases: cell-based
Escherichia coli = experiment: Antibiotic susceptibility testing (colour of media), spiked milk; conditions: 37° C., plate configuration #3
Streptococcus uberis = experiment: as above; conditions: T~16 h, 37° C., bacteria samples 6d, plate configuration #3
Staphylococcus aureus = experiment: as above; conditions: T~16 h, 37° C., plate configuration #3
[1] = test system: bacteria samples 4c, 4e, 5c, 5e, 6d; experiment: Antibiotic susceptibility testing (colour of media), plate configuration #3, reference colours at 0 hours for bacteria samples 4c, 4e, 5c, 5e, 6d; conditions: T~0 h
[2] = Benzyl Penicillin or Cloxacillin 1 μg/ml
[3] = Benzyl Penicillin or Cloxacillin 10 μg/ml
[4] = Benzyl Penicillin or Cloxacillin 100 μg/ml
[5] = Benzyl Penicillin or Cloxacillin 1,000 μg/ml
[6] = Benzyl Penicillin or Cloxacillin 10,000 μg/ml

Cc1onc(-c2ccccc2Cl)c1C(=O)N[C@@H]1C(=O)N2[C@@H]1SC(C)(C)[C@@H]2C(=O)O [cloxacillin]
Colour of media in each well (Escherichia coli; T~16 h, bacteria samples 4c, Benzyl Penicillin or Cloxacillin 1 μg/ml): yellow
Colour of media in each well (Escherichia coli; T~16 h, bacteria samples 4c, Benzyl Penicillin or Cloxacillin 10 μg/ml): yellow
Colour of media in each well (Escherichia coli; T~16 h, bacteria samples 4c, Benzyl Penicillin or Cloxacillin 100 μg/ml): yellow
Colour of media in each well (Escherichia coli; T~16 h, bacteria samples 4c, Benzyl Penicillin or Cloxacillin 1,000 μg/ml): yellow
Colour of media in each well (Escherichia coli; T~16 h, bacteria samples 4c, Benzyl Penicillin or Cloxacillin 10,000 μg/ml): red
Colour of media in each well (Escherichia coli; t~16 h, bacteria samples 4e, Benzyl Penicillin or Cloxacillin 1 μg/ml): yellow
Colour of media in each well (Escherichia coli; t~16 h, bacteria samples 4e, Benzyl Penicillin or Cloxacillin 10 μg/ml): yellow
Colour of media in each well (Escherichia coli; t~16 h, bacteria samples 4e, Benzyl Penicillin or Cloxacillin 100 μg/ml): yellow
Colour of media in each well (Escherichia coli; t~16 h, bacteria samples 4e, Benzyl Penicillin or Cloxacillin 1,000 μg/ml): red
Colour of media in each well (Escherichia coli; t~16 h, bacteria samples 4e, Benzyl Penicillin or Cloxacillin 10,000 μg/ml): red
Colour of media in each well (Streptococcus uberis; [2]): red
Colour of media in each well (Streptococcus uberis; [3]): red
Colour of media in each well (Streptococcus uberis; [4]): red
Colour of media in each well (Streptococcus uberis; [5]): red
Colour of media in each well (Streptococcus uberis; [6]): red
Colour of media in each well (Staphylococcus aureus; bacteria samples 5c, Benzyl Penicillin or Cloxacillin 1 μg/ml): red
Colour of media in each well (Staphylococcus aureus; bacteria samples 5c, Benzyl Penicillin or Cloxacillin 10 μg/ml): red
Colour of media in each well (Staphylococcus aureus; bacteria samples 5c, Benzyl Penicillin or Cloxacillin 100 μg/ml): red
Colour of media in each well (Staphylococcus aureus; bacteria samples 5c, Benzyl Penicillin or Cloxacillin 1,000 μg/ml): red
Colour of media in each well (Staphylococcus aureus; bacteria samples 5c, Benzyl Penicillin or Cloxacillin 10,000 μg/ml): red
Colour of media in each well (Staphylococcus aureus; bacteria samples 5e, Benzyl Penicillin or Cloxacillin 1 μg/ml): red
Colour of media in each well (Staphylococcus aureus; bacteria samples 5e, Benzyl Penicillin or Cloxacillin 10 μg/ml): red
Colour of media in each well (Staphylococcus aureus; bacteria samples 5e, Benzyl Penicillin or Cloxacillin 100 μg/ml): red
Colour of media in each well (Staphylococcus aureus; bacteria samples 5e, Benzyl Penicillin or Cloxacillin 1,000 μg/ml): red
Colour of media in each well (Staphylococcus aureus; bacteria samples 5e, Benzyl Penicillin or Cloxacillin 10,000 μg/ml): red
Colour of media in each well [1, 2]: red
Colour of media in each well [1, 3]: red
Colour of media in each well [1, 4]: red
Colour of media in each well [1, 5]: red
Colour of media in each well [1, 6]: red
